Source: ChEMBL document CHEMBL1914365, “Aminoacyl-tRNA synthetase inhibitors as potential antibiotics” (Eur J Med Chem, 2011)
Values after ≈ are worked out from the molar mass of the structure shown. Values belong to the compound of their own block, whether it stands above or below them.

Columns and labels:
[1] = tested on: Staphylococcus epidermidis; assay: Antibacterial activity against Staphylococcus epidermidis; format: functional
Staphylococcus aureus [2] = assay: Antibacterial activity against methicillin-resistant Staphylococcus aureus; format: functional
Escherichia coli = assay: Antibacterial activity against Escherichia coli; format: functional
Isoleucine--tRNA ligase = Isoleucine--tRNA ligase (Escherichia coli K-12, UniProt P00956); assay: Competitive inhibition of Escherichia coli Isoleucyl-tRNA synthetase
[3] = Inhibition of Trypanosoma brucei Leucyl-tRNA synthetase
Staphylococcus = assay: Antibacterial activity against Staphylococcus aureus; format: functional
Trypanosoma brucei = assay: Antitrypanosomal activity against Trypanosoma brucei assessed as growth inhibition; format: functional, organism-based
[4] = Inhibition of Escherichia coli Methionyl-tRNA synthetase
[5] = Inhibition of Staphylococcus aureus Methionyl-tRNA synthetase
Streptococcus pyogenes = assay: Antibacterial activity against Streptococcus pyogenes; format: functional
Staphylococcus aureus [6] = assay: Antibacterial activity against mupirocin or oxacillin-resistant Staphylococcus aureus; format: functional

Chain of Isoleucine--tRNA ligase (P00956 whole entry): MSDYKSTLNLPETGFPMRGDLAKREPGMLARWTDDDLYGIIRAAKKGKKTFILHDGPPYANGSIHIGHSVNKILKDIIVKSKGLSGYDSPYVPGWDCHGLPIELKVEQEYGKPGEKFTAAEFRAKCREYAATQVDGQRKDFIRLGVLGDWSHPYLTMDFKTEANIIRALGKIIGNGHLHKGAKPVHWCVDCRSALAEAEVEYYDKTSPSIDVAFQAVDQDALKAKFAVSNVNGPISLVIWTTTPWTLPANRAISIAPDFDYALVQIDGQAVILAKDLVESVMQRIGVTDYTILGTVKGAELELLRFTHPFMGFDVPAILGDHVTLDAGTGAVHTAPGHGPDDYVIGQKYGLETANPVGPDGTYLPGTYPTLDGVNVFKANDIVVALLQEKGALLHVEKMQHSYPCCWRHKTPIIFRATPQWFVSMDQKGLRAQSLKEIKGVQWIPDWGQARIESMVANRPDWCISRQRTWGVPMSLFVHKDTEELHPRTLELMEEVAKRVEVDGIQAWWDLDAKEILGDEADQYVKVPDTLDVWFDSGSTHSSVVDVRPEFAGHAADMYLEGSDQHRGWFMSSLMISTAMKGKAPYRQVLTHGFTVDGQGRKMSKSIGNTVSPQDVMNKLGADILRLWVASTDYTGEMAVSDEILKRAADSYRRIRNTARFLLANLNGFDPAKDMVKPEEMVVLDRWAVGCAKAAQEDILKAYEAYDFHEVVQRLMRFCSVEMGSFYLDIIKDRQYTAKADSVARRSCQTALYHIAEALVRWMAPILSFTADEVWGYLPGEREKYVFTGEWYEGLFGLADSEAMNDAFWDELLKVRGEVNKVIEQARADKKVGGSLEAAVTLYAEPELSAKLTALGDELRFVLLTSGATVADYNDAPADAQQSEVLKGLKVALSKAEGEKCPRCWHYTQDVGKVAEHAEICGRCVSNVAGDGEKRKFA

SMILES: CC(C)C[C@H](NC(=O)[C@H](CC(C)C)N1C[C@@H](CNC(=O)Nc2ccccc2)NC1=O)C(=O)O
MIC50 [1]: 6.25 µM (≈ 2.88 µg/mL)

SMILES: CC(C)C[C@H](NC(=O)[C@H](CC(C)C)N1C[C@@H](CNC(=O)Nc2ncccn2)NC1=O)C(=O)O
MIC50 [1]: 25 µM (≈ 11.6 µg/mL)

SMILES: C/C(=C\C(=O)OCCCCCCCCC(=O)O)C[C@@H]1OC[C@H](C[C@@H]2O[C@H]2[C@@H](C)[C@H](C)O)[C@@H](O)[C@H]1O [MUPIROCIN]
MIC (Staphylococcus aureus [2]): 0.25 µg/mL (≈ 0.499 µM) | MIC (Escherichia coli): 128 µg/mL (≈ 256 µM) | Ki (Isoleucine--tRNA ligase): 2.5 nM

SMILES: CC(C)C[C@H](NC(=O)[C@H](CC(C)C)N1C[C@@H](CNS(=O)(=O)c2ccccc2)NC1=O)C(=O)O
MIC50 [1]: 100 µM (≈ 48.3 µg/mL)

SMILES: C=C(F)c1sc(CNCCCNc2cc(=O)c3ccccc3[nH]2)c(C)c1Br [BEDEROCIN]
Ki [4]: 300 nM | Ki [5]: 0.01 nM | MIC (Streptococcus pyogenes): 0.03 µg/mL (≈ 0.0666 µM) | MIC90 (Staphylococcus aureus [6]): 0.5 µg/mL (≈ 1.11 µM)

Second part, the compound after the results:

IC50 [3]: 1600 nM
SMILES: CCOC(=O)COc1ccc2c(c1)B(O)OC2

MIC50 (Staphylococcus): 0.42 µg/mL (≈ 1.08 µM)
SMILES: O=C1OCC(NNc2ccc([N+](=O)[O-])cc2)=C1c1ccc(Br)cc1

EC50 (Trypanosoma brucei): 370 nM
SMILES: CC(=O)C(C)(C)Oc1ccc2c(c1)B(O)OC2
